Calls of active or inactive are those of the source. The calls are words filed in the database; no cut-off is given here.

Series [1] concerns the target T1, Tyrosine-protein phosphatase non-receptor type 1 (Homo sapiens) (UniProt P18031).
T1 sequence (whole entry): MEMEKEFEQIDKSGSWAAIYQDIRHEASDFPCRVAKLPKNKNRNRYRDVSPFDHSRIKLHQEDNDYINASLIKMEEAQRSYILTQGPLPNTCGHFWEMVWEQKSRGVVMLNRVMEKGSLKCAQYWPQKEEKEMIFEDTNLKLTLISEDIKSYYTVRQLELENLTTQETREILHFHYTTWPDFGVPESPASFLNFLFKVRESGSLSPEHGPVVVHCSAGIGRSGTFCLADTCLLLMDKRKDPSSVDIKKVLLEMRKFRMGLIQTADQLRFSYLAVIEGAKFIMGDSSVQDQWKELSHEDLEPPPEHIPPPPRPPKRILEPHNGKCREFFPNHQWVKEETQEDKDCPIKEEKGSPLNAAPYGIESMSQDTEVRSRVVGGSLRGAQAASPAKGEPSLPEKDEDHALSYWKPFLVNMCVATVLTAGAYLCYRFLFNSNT
Description: Reversible inhibition of recombinant human PTP1B catalytic domain (1 to 322 amino acid residues) in 3,3-dimethylglutarate buffer assessed as inactivation constant kr.

Series [2] concerns the target T1, Tyrosine-protein phosphatase non-receptor type 1 (Homo sapiens). In words: Reversible inhibition of recombinant human PTP1B catalytic domain (1 to 322 amino acid residues) in 3,3-dimethylglutarate buffer assessed as inactivation constant kf.
The target of series [3] is T2, Tyrosine-protein phosphatase non-receptor type 11 (Homo sapiens) (UniProt Q06124).
T2 sequence (whole entry): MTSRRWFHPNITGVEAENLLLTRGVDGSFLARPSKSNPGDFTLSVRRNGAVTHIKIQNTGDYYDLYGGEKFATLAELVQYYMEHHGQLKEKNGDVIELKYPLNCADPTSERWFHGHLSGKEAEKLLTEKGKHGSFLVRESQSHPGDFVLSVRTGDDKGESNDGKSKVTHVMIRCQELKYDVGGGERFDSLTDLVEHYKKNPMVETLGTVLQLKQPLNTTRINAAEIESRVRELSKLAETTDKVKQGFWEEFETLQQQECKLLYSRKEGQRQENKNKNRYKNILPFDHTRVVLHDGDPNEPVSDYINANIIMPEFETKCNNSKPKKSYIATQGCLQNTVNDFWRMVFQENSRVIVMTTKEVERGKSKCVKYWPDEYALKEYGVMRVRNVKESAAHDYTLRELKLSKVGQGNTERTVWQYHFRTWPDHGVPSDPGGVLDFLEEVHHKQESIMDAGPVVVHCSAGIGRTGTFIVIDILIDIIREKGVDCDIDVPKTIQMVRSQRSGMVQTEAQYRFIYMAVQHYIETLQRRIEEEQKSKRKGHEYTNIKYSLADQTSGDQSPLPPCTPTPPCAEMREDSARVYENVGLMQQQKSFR
Description: Inhibition of recombinant human SHP2 catalytic domain (246 to 527 amino acid residues) in Tris buffer using pNPP as substrate assessed as apparent second order rate constant after 10 mins.

The target in series [4] is T2, Tyrosine-protein phosphatase non-receptor type 11 (Homo sapiens). In words: Inhibition of recombinant human SHP2 catalytic domain (246 to 527 amino acid residues) in 3,3-dimethylglutarate buffer using pNPP as substrate assessed as p-nitrophenolate release by spectrophotometric analysis in presence of reversible, site-directed inhibitor phosphate, arsenate.
For series [5] the target is unchanged. In words: Inhibition of recombinant human SHP2 catalytic domain (246 to 527 amino acid residues) in 3,3-dimethylglutarate buffer using pNPP as substrate assessed as apparent second order rate constant after 10 mins.
The target in series [6] is T1, Tyrosine-protein phosphatase non-receptor type 1 (Homo sapiens). Description: Reversible inhibition of recombinant human PTP1B catalytic domain (1 to 322 amino acid residues) in Tris buffer assessed as inactivation constant kr.
Series [7] has the same target. In words: Inhibition of recombinant human PTP1B catalytic domain (1 to 322 amino acid residues) using pNPP as substrate assessed as p-nitrophenolate release at 500 uM incubated with first aliquot of enzyme for 2000 secs followed by addition of second aliquot of enzyme measured for 1500 secs by spectrophotometric analysis.
A short description of series [8]: Chemical stability of the compound in Bis-Tris and Tris buffer containing DTPA, sodium acetate, Tween 80 at 500 uM at pH 7.0 at 30 degC incubated for 2.5 hrs prior to addition of PTP1B. It counts as physicochemical. As to conditions: pH 7, 2.5 h.
For series [9], the target named is T1, Tyrosine-protein phosphatase non-receptor type 1 (Homo sapiens). Description: Reversible inhibition of recombinant human PTP1B catalytic domain (1 to 322 amino acid residues) measured for 3 hrs by gel filtration assay. A general note: Size exclusion chromatography separates by hydrodynamic size, large species first.
Series [10] has the same target. In words: Inhibition of recombinant human PTP1B catalytic domain (1 to 322 amino acid residues) using pNPP as substrate assessed as p-nitrophenolate release at 200 uM after 10 mins by spectrophotometric analysis in presence of reversible, site-directed inhibitor phosphate, arsenate.
Series [11] has the same target. In words: Reversible inhibition of recombinant human PTP1B catalytic domain (1 to 322 amino acid residues) in Tris buffer assessed as inactivation constant kf.
Series [12] shares this target. Description: Inhibition of recombinant human PTP1B catalytic domain (1 to 322 amino acid residues) using pNPP as substrate assessed as p-nitrophenolate release after 10 mins by spectrophotometric analysis in presence of catalase, superoxide dismutase and mannitol.
The nature of series [13]: Chemical stability of the compound in 3,3-dimethylglutarate buffer containing DTPA, sodium acetate, Tween 80 at 500 uM at pH 7.0 at 30 degC incubated for 2.5 hrs prior to addition of PTP1B. It counts as physicochemical. As to conditions: pH 7, 2.5 h.

Take `C[S+]([O-])CCCCN=C=S` (stereo not drawn): the values for the K in series [1] and in [2] were 1.4 ×10⁻⁴ /s and 2.4 M⁻¹ s⁻¹, respectively. Also, the Kapp in [3] turned out to be 3.5 M⁻¹ s⁻¹; in series [5] it was 3.7 M⁻¹ s⁻¹. Further, in series [4], the inhibition entry is “inactive”.

On to `C=CCN=C=S` [ALLYL ISOTHIOCYANATE], for which the K in [1] is 8.3 ×10⁻⁵ /s; in [2], 2.7 M⁻¹ s⁻¹; in [6], 2.3 ×10⁻⁴ /s; in [11] it was 2.3 M⁻¹ s⁻¹. Besides, the Kapp was 16 M⁻¹ s⁻¹ in series [3] and 9 M⁻¹ s⁻¹ in series [5]. In addition, the inhibition entry in series [7], in [9] and in [12] was “Active” each time. For the same molecule, the Stability result in series [8] is listed as “Unstable”; in series [13] it was “Stable”. The inhibition result in [4] and in series [10] was “inactive” in each case.

Source of the values: ChEMBL document CHEMBL3627631, “Inactivation of protein tyrosine phosphatases by dietary isothiocyanates” (Bioorg Med Chem Lett, 2015).
